Results from PubChem BioAssay (NCI).
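Grown in 96-well plates, cells were treated for 48 hours with each compound at five concentrations. Insufficient inhibition: endpoint recorded as highest concentration tested. Definition used: TGI = concentration required for complete inhibition of growth.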

Assays:
Assay in all cases: NCI anticancer screen, dose series, 48 h
[1] = test system: SK-MEL-28 melanoma
[2] = test system: MALME-3M melanoma
[3] = test system: SK-MEL-5 melanoma
[4] = test system: SK-MEL-2 melanoma
[5] = test system: UACC-62 melanoma
[6] = test system: NCI-H460 lung
[7] = test system: NCI-H522 lung
[8] = test system: HT29 colon
[9] = test system: U251 CNS
[10] = test system: HOP-62 NSCLC
[11] = test system: OVCAR-5 ovarian
[12] = test system: NCI/ADR-RES ovarian
[13] = test system: SNB-75 CNS
[14] = test system: RPMI-8226 leukemia
[15] = test system: SF-295 CNS
[16] = test system: SR leukemia
[17] = test system: MDA-MB-231 breast
[18] = test system: M14 melanoma
[19] = test system: KM12 colon
[20] = test system: IGROV1 ovarian
[21] = test system: K-562 leukemia
[22] = test system: OVCAR-3 ovarian
[23] = test system: SF-539 CNS
[24] = test system: MDA-N
[25] = test system: OVCAR-8 ovarian
[26] = test system: CCRF-CEM leukemia
[27] = test system: HL-60(TB) leukemia
[28] = test system: LOX IMVI melanoma
[29] = test system: MOLT-4 leukemia
[30] = test system: PC-3 prostate
[31] = test system: A549 NSCLC
[32] = test system: CAKI-1 renal
[33] = test system: SN12C renal
[34] = test system: COLO 205 colon
[35] = test system: HCT-116 colon
[36] = test system: SK-OV-3 ovarian
[37] = test system: NCI-H23 lung
[38] = test system: SNB-19 CNS
[39] = test system: HOP-92 NSCLC
[40] = test system: OVCAR-4 ovarian
[41] = test system: MCF7 breast
[42] = test system: TK-10 renal
[43] = test system: EKVX NSCLC
[44] = test system: UACC-257 melanoma
[45] = test system: SF-268 CNS
[46] = test system: A498 renal
[47] = test system: NCI-H226 lung
[48] = test system: HCC-2998 colon
[49] = test system: 786-0 renal
[50] = test system: MDA-MB-435
[51] = test system: ACHN renal
[52] = test system: HS 578T breast
[53] = test system: HCT-15 colon
[54] = test system: RXF 393 renal
[55] = test system: T-47D breast
[56] = test system: UO-31 renal
[57] = test system: SW-620 colon
[58] = test system: DU-145 prostate

With `CC(C)CC(NC(=O)C(Cc1ccccc1)NC(=O)[C@H]1CC[C@H](NC(=O)C(Cc2ccc(OC(C)(C)C)cc2)NC(=O)OC(C)(C)C)C1)C(N)=O` (stereo partly specified) the TGI [1] was 51.5 µM, the TGI [2] was 61 µM and the TGI [3] was 20.1 µM. For the same molecule, the TGI [4] was 34.8 µM, the TGI [5] was 41.8 µM and the TGI [6] was 39.7 µM. The TGI [7] was 33.7 µM, the TGI [8] was 46.2 µM and the TGI [9] was 28.6 µM. It also gave a TGI [10] greater than 100 µM, a TGI [11] greater than 100 µM and a TGI [12] greater than 100 µM. The TGI [13] was greater than 100 µM, the TGI [14] was greater than 100 µM and the TGI [15] was 83.5 µM. For the same molecule, the TGI [16] was greater than 100 µM, the TGI [17] was 97 µM and the TGI [18] was 33.7 µM. For the same molecule, the TGI [19] was 44.1 µM, the TGI [20] was 77.8 µM and the TGI [21] was 47.9 µM. It also gave a TGI [22] of 58 µM, a TGI [23] of 42.6 µM and a TGI [24] of 41.1 µM. For the same molecule, the TGI [25] was 36 µM, the TGI [26] was 43.3 µM and the TGI [27] was greater than 100 µM. It also gave a TGI [28] of 35.1 µM, a TGI [29] of 53.6 µM and a TGI [30] of 59.3 µM. For the same molecule, the TGI [31] was greater than 100 µM, the TGI [32] was greater than 100 µM and the TGI [33] was 31.5 µM. For the same molecule, the TGI [34] was 35.8 µM, the TGI [35] was 28.2 µM and the TGI [36] was greater than 100 µM. It also gave a TGI [37] of 31.4 µM, a TGI [38] of 53.9 µM and a TGI [39] of 59 µM. It also gave a TGI [40] greater than 100 µM, a TGI [41] of 31.9 µM and a TGI [42] of 86.9 µM. For the same molecule, the TGI [43] was greater than 100 µM, the TGI [44] was 37 µM and the TGI [45] was greater than 100 µM. It also gave a TGI [46] greater than 100 µM, a TGI [47] of 45.2 µM and a TGI [48] of 27.5 µM. It also gave a TGI [49] greater than 100 µM, a TGI [50] of 41.2 µM and a TGI [51] greater than 100 µM. It also gave a TGI [52] of 35.8 µM, a TGI [53] of 48.9 µM and a TGI [54] greater than 100 µM. The TGI [55] was 46.9 µM, the TGI [56] was greater than 100 µM and the TGI [57] was 94.3 µM.
`COP(=O)(OC)/C(=C/c1cn(C(C)=O)c2ccccc12)NC(C)=O` was tested, and the TGI [1] was greater than 100 µM, the TGI [3] was greater than 100 µM and the TGI [4] was greater than 100 µM. For the same molecule, the TGI [6] was greater than 100 µM, the TGI [7] was greater than 100 µM and the TGI [8] was greater than 100 µM. The TGI [9] was greater than 100 µM, the TGI [10] was greater than 100 µM and the TGI [11] was greater than 100 µM. It also gave a TGI [12] greater than 100 µM, a TGI [13] greater than 100 µM and a TGI [14] of 45.3 µM. It also gave a TGI [15] greater than 100 µM, a TGI [16] greater than 100 µM and a TGI [17] greater than 100 µM. For the same molecule, the TGI [18] was greater than 100 µM, the TGI [20] was greater than 100 µM and the TGI [21] was greater than 100 µM. The TGI [22] was 66.2 µM, the TGI [24] was 36.3 µM and the TGI [25] was greater than 100 µM. It also gave a TGI [26] of 58.3 µM, a TGI [27] of 42.6 µM and a TGI [58] greater than 100 µM. It also gave a TGI [28] of 41.9 µM, a TGI [30] greater than 100 µM and a TGI [31] greater than 100 µM. It also gave a TGI [32] greater than 100 µM, a TGI [33] greater than 100 µM and a TGI [34] greater than 100 µM. The TGI [35] was greater than 100 µM, the TGI [36] was greater than 100 µM and the TGI [37] was greater than 100 µM. For the same molecule, the TGI [40] was greater than 100 µM, the TGI [41] was greater than 100 µM and the TGI [42] was greater than 100 µM. It also gave a TGI [44] greater than 100 µM, a TGI [46] of 94.3 µM and a TGI [50] greater than 100 µM. It also gave a TGI [51] greater than 100 µM, a TGI [52] greater than 100 µM and a TGI [53] of 66.4 µM. For the same molecule, the TGI [55] was greater than 100 µM and the TGI [57] was greater than 100 µM.
